According to patent US10729706B2, “Psilocybin and/or psilocin in combination with cannabinoids and/or terpenes” (Procare Beheer B.V., priority 2017, dated 2020):

Experiments:
[1] = system: subjects with Schizophrenia; assay: 48-day daily oral treatment, subjects diagnosed with schizophrenia; assay type: in vivo; conditions: 2 subjects with schizophrenia, 48-day treatment, 30 mg of each active, decrease
Method: (§1) In a 48-day treatment, 50 subjects suffering from diverse medical conditions receive a daily oral dose with either • pure psilocybin (30 mg); • pure cannabidiol (30 mg); or • combined treatment of pure psilocybin (30 mg)+pure cannabidiol (30 mg).

[2] = system: subjects with Parkinson's disease; assay: 48-day daily oral treatment, subjects diagnosed with Parkinson's disease; assay type: in vivo; conditions: 4 subjects with Parkinson's disease, 48-day treatment, 30 mg of each active
Method: as §1

[3] = system: subjects with Psychotic disorder; assay: 48-day daily oral treatment, subjects diagnosed with psychotic disorder; assay type: in vivo; conditions: 3 subjects with psychotic disorder; 48-day treatment, daily oral dose 30 mg; increase
Method: as §1

[4] = system: subjects with Huntington's disease; assay: 48-day daily oral treatment, subject diagnosed with Huntington's disease; assay type: in vivo; conditions: 1 subject with Huntington's disease, 48-day treatment, 30 mg of each active
Method: as §1

[5] = system: subjects with Panic disorder; assay: 48-day daily oral treatment, subjects diagnosed with panic disorder; assay type: in vivo; conditions: 2 subjects with panic disorder; 48-day treatment, daily oral dose 30 mg; increase
Method: as §1

[6] = system: subjects with Alzheimer's disease; assay: 48-day daily oral treatment, subjects diagnosed with Alzheimer's disease; assay type: in vivo; conditions: 10 subjects with Alzheimer's disease, 48-day treatment, 30 mg of each active
Method: as §1

[7] = system: subjects with Anxiety disorder; assay: 48-day daily oral treatment, subjects diagnosed with anxiety disorder; assay type: in vivo; conditions: 4 subjects with anxiety disorder; 48-day treatment, daily oral dose 30 mg; increase
Method: as §1

subjects with Dementia = assay: 48-day daily oral treatment, subjects diagnosed with dementia; assay type: in vivo; conditions: 10 subjects with dementia, 48-day treatment, 30 mg of each active
Method: as §1

subjects with Depression = assay: 48-day daily oral treatment, subjects diagnosed with depression; assay type: in vivo; conditions: 14 subjects with depression, 48-day treatment, 30 mg of each active
Method: as §1

[8] = general statement in description; cited from earlier work

SMILES	decreased occurrence of schizophrenic episodes during period of treatment, on average [1]	progression of movement disorders during treatment [2]	increased occurrence of psychotic episodes during period of treatment, on average [3]	progression of movement, cognitive, and psychiatric disorders during treatment [4]	Increased occurrence of panic attacks during period of treatment, on average [5]	progression of disease symptoms during treatment [6]	increased occurrence of anxiety attacks during period of treatment, on average [7]	progression of disease symptoms during treatment (subjects with Dementia)	subjects report improved mood after period of treatment (subjects with Depression) [subjects report]	toxicity [8]
C=C(C)[C@@H]1CCC(C)=C[C@H]1c1c(O)cc(CCCCC)cc1O [cannabidiol]	on average, 50%	normal progression	on average, 10%	normal progression	on average, 40%	normal progression	on average, 40%	normal progression	5	
CN(C)CCc1c[nH]c2cccc(OP(=O)(O)O)c12 [psilocybin, [3-(2-dimethylaminoethyl)-1H-indol-4-yl] dihydrogen phosphate]	on average, 0%		on average, 20%		on average, 50%		on average, 50%		6	low toxicity
